The values that follow come from patent US8633183B2 (priority 2010, dated 2014).

In the test the target is PI3Kalpha (Homo sapiens (Human), UniProt P42336). The conditions noted are these: read-out: IC50 PI3K.
Sequence of PI3Kalpha (P42336 whole entry, looked up): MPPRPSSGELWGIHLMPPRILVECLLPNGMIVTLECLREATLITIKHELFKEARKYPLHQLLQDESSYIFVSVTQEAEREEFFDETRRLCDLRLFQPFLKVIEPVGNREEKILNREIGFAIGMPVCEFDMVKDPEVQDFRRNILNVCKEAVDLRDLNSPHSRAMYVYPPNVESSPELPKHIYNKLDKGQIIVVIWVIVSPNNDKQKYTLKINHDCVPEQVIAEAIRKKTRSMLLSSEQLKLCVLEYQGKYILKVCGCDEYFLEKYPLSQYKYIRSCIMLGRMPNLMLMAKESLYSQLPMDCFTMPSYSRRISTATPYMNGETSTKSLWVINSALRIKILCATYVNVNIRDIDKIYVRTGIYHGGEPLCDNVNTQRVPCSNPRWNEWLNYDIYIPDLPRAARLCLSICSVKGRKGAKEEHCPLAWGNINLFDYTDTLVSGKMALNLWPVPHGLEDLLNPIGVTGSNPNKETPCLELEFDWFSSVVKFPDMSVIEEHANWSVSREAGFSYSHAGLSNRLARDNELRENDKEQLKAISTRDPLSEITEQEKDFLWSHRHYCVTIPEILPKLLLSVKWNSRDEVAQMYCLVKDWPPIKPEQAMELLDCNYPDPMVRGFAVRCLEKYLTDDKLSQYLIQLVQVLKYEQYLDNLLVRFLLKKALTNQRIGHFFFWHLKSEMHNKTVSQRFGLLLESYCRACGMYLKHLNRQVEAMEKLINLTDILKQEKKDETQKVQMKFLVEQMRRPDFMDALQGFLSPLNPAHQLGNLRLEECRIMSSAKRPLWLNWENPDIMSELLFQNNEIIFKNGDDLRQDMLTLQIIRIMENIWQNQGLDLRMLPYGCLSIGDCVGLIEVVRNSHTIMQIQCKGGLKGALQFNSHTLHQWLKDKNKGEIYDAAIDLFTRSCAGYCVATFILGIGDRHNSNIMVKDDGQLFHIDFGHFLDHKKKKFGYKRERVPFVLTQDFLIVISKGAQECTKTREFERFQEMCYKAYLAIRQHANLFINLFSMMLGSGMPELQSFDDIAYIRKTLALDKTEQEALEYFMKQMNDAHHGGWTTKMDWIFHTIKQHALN
As for `Cc1ncnc(-c2ccc(C(=O)N3CCCO3)c(Cl)c2)c1C#Cc1ccc(N)nc1` [Example D-230], the IC50 was determined as 37 nM.
On to `CCc1ncnc(-c2ccc(S(C)(=O)=O)cc2)c1C#Cc1ccc(N)nc1` [Example C-14], for which the IC50 is 66 nM.
With `CCc1ncnc(-c2ccc(C(=O)N3CCN(C4CCS(=O)(=O)C4)CC3)c(Cl)c2)c1C#Cc1ccc(N)nc1` [Example D-32], the IC50 amounted to 121 nM.
Consider `CCc1ncnc(-c2ccc(C(=O)NC)c(Cl)c2)c1C#Cc1ccc(C)nc1` [Example C-16], for which the IC50 worked out at 236 nM.
As to `CCc1ncnc(-c2ccnc(OC)c2)c1C#Cc1ccc(N)nc1` [Example C-33], the IC50 came out at 61 nM.
The figure for `CCc1ncnc(-c2ccc(C(=O)N3CCC(N4CCN(C)CC4)CC3)c(F)c2)c1C#Cc1ccc(N)nc1` [Example D-62] is 205 nM.
With `CCc1ncnc(-c2ccc(C(=O)N3CCCN(C)CC3)c(Cl)c2)c1C#Cc1ccc(N)nc1` [Example E-36], the IC50 is 405 nM.
The figure for `CCc1ncnc(-c2cc(F)c(C(=O)N3CCN(C)C[C@@H]3C)c(Cl)c2)c1C#Cc1ccc(N)nc1` [Example E-341] is 282 nM.
`CCc1ncnc(-c2ccc(C(=O)N3CC(O)CO3)c(Cl)c2)c1C#Cc1ccc(N)nc1` (stereo not shown) [Example E-73]: the IC50 is 88.3 nM.
As to `CCc1ncnc(-c2ccc(C(=O)N3CCN(C)CC3)c(F)c2)c1C#Cc1ccc(N)nc1` [Example D-8], the IC50 was found to be 215 nM.
For `CCc1ncnc(-c2cc(F)c(C(=O)N(C)C)c(F)c2)c1C#Cc1ccc(N)nc1` [Example E-10], the IC50 came to 49.1 nM.
As to `CCc1ncnc(-c2cc(F)c(C(=O)N(C)C3CCN(C)CC3)c(F)c2)c1C#Cc1ccc(N)nc1` [Example E-176], the IC50 was determined as 491 nM.
Regarding `CCOC(=O)N1CCN(C(=O)c2ccc(-c3ncnc(CC)c3C#Cc3ccc(N)nc3)cc2C)CC1` [Example E-107], the IC50 is 62.9 nM.
As to `CCc1ncnc(-c2ccc(C(=O)N3CCCN(C)CC3)c(C)c2)c1C#Cc1ccc(N)nc1` [Example E-129], the IC50 was found to be 237 nM.
As to `CCc1ncnc(-c2ccc(C(=O)N3CCC(N4CCOCC4)CC3)c(OC(F)(F)F)c2)c1C#Cc1ccc(N)nc1` [Example E-228], the IC50 came to 356 nM.
Next, `CCc1ncnc(-c2ccc(C(=O)N3CCC(O)(C(F)(F)F)CC3)c(F)c2)c1C#Cc1ccc(N)nc1` [Example D-123]: 324 nM; `CCc1ncnc(-c2cccc(C(=O)NC)c2)c1C#Cc1ccc(N)nc1` [Example C-50]: 72 nM.
For `CCc1ncnc(-c2ccc(C(=O)N3CCN(CC4CCCCC4)CC3)c(F)c2)c1C#Cc1ccc(N)nc1C` [Example D-22], the IC50 was found to be 1270 nM.
Consider `CCc1ncnc(-c2ccc(C(=O)NC)c(Cl)c2)c1C#Cc1ccc(N)nc1` [Example C-12], for which the IC50 came out at 71 nM.
In the case of `CCNc1ccc(C#Cc2c(CC)ncnc2-c2ccc(C(=O)N3CCC(N4CCOCC4)CC3)c(F)c2)cn1` [Example E-259], the IC50 stood at 209 nM.
The figure for `CCc1ncnc(-c2ccc(C(=O)N3CCN(CCN(C)C)CC3)c(F)c2)c1C#Cc1ccc(N)nc1` [Example D-99] is 452 nM.
For the compound `CCc1ncnc(-c2cc(F)c(C(=O)N3CCN(Cc4cc(C)no4)CC3)c(Cl)c2)c1C#Cc1ccc(N)nc1` [Example E-304], the IC50 stood at 108 nM.
`CCc1ncnc(-c2ccc(C(=O)N3CC4(CN(C)C4)C3)c(Cl)c2)c1C#Cc1ccc(N)nc1` [Example E-334]: the IC50 is 966 nM.
On to `CCc1ncnc(-c2ccc(C(=O)N3CCOCC3)c(C)c2)c1C#Cc1ccc(N)nc1` [Example E-92], for which the IC50 came out at 59.5 nM.
Regarding `CCc1ncnc(-c2ccc(C(=O)N3CCCCC3)c(F)c2)c1C#Cc1ccc(N)nc1C` [Example D-10], the IC50 turned out to be 206 nM.
Consider `CCc1ncnc(-c2ccc(C(=O)N3CCN(C(C)COC)CC3)c(F)c2)c1C#Cc1ccc(N)nc1` (stereo not shown) [Example E-291], for which the IC50 was determined as 220 nM.
Regarding `CCc1ncnc(-c2ccc(C(=O)N3CC(O)CO3)c(C)c2)c1C#Cc1ccc(N)nc1` (stereo not shown) [Example E-93], the IC50 came to 107 nM.
Regarding `CCc1ncnc(-c2ccc(C(=O)NC3CCCN(C)C3)c(F)c2)c1C#Cc1ccc(N)nc1` [Example D-197], the IC50 came to 280 nM.
Take `CCc1ncnc(-c2ccc(C(=O)N3CCN(CCN)CC3)c(Cl)c2)c1C#Cc1ccc(N)nc1` [Example E-284]: the IC50 stood at 181 nM.
The figure for `CCc1ncnc(-c2ccc(C(=O)N3CCN(C4COC4)CC3)c(Cl)c2)c1C#Cc1ccc(N)nc1` [Example E-273] is 119 nM.
For the compound `CCc1ncnc(-c2cc(F)c(C(=O)N3CCC(C(C)O)CC3)c(Cl)c2)c1C#Cc1ccc(N)nc1` (stereo not shown) [Example E-241], the IC50 was determined as 91.5 nM.
Take `CCc1ncnc(-c2ccc(C(=O)N3CCN4CCCC[C@H]4C3)c(Cl)c2)c1C#Cc1ccc(N)nc1` [Example E-143]: the IC50 was 127 nM.
Turning to `CCc1ncnc(-c2ccc(C(=O)N3CCN(CC(F)F)CC3)c(F)c2)c1C#Cc1ccc(N)nc1` [Example D-61], the IC50 was determined as 86 nM.
Consider `CCc1ncnc(-c2ccc(C(=O)N3CCC[C@H]3CO)c(F)c2)c1C#Cc1ccc(N)nc1` [Example D-135], for which the IC50 turned out to be 136 nM.
As for `CCc1ncnc(-c2ccc(Cl)c(C(=O)N3CCCCC3)c2)c1C#Cc1ccc(N)nc1` [Example C-48], the IC50 is 596 nM.
The figure for `CCc1ncnc(-c2ccc(C(=O)N3CCN(c4ccccc4)CC3)c(F)c2)c1C#Cc1ccc(N)nc1` [Example D-98] is 199 nM; for `CCc1ncnc(-c2ccc(C(=O)N3CCCOCC3)c(Cl)c2)c1C#Cc1ccc(N)nc1` [Example D-157] it is 65 nM; for `CCc1ncnc(-c2ccc(C(=O)N3CCN(CC)CC3)c(OC(F)(F)F)c2)c1C#Cc1ccc(N)nc1` [Example E-226] it is 196 nM.
For `CCc1ncnc(-c2ccc(C(=O)N3CCN(CC)CC3)c(Cl)c2)c1C#Cc1ccc(NC)nc1` [Example E-189], the IC50 came out at 186 nM.
Consider `CCc1ncnc(-c2ccc(C(=O)N3CCC(C)(O)CC3)c(Cl)c2)c1C#Cc1ccc(N)nc1` [Example E-25], for which the IC50 stood at 76.8 nM.
Next, `CCc1ncnc(-c2ccc(C(=O)N3CCN(Cc4ccccc4)CC3)c(Cl)c2)c1C#Cc1ccc(N)nc1` [Example D-160]: 658 nM; `CCc1ncnc(-c2ccc(C(=O)N3CCN(Cc4cc(C)no4)CC3)c(F)c2)c1C#Cc1ccc(N)nc1` [Example E-290]: 200 nM.
Turning to `CCc1ncnc(-c2ccc(C(=O)N3CCN(CC4CCCO4)CC3)c(F)c2)c1C#Cc1ccc(N)nc1` [Example D-88], the IC50 is 118 nM.
Consider `CCc1ncnc(-c2ccc(C(=O)N(C)CCN3CCCC3=O)c(OC)c2)c1C#Cc1ccc(N)nc1` [Example E-65], for which the IC50 amounted to 88 nM.
For the compound `Cc1ncnc(-c2ccc(C(=O)N3CC(O)CO3)c(F)c2)c1C#Cc1ccc(N)nc1` [Example D-228], the IC50 was 52 nM.
As for `CCc1ncnc(-c2cc(F)c(C(=O)N3CCN(C(C)(C)C)CC3)c(F)c2)c1C#Cc1ccc(N)nc1` [Example E-8], the IC50 came to 1320 nM.
For `CCc1ncnc(-c2ccc(F)c(C(=O)N(C)C)c2)c1C#Cc1ccc(N)nc1` [Example C-15], the IC50 was 189 nM.
Turning to `CCc1ncnc(-c2ccc(C(=O)N3CCN(CC(C)O)CC3)c(Cl)c2)c1C#Cc1ccc(N)nc1` (stereo not shown) [Example E-317], the IC50 was 92.8 nM.
Regarding `CCc1ncnc(-c2ccccc2)c1C#Cc1ccc(N)nc1` [Example C-13], the IC50 came to 99 nM.
